Measured values published in the supplement of paper PMC10307832.

Experiments:
Assay in all cases: relative viability (nuclei count vs DMSO), 5 days (fraction); higher = more cells survive
[1] = compound: CCOc1cc2ncc(C#N)c(Nc3ccc(OCc4ccccn4)c(Cl)c3)c2cc1NC(=O)/C=C/CN(C)C [Neratinib] + CC(=O)c1c(C)c2cnc(Nc3ccc(N4CCNCC4)cn3)nc2n(C2CCCC2)c1=O [Palbociclib] (partner 0.5 µM)
Method in brief: (§1)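 For relative viability, nuclei counts in treated wells were divided by those in vehicle wells. Lung cancer cell lines had been pin-tool dosed in 1536-well plates the day after seeding and cultured for 5 days, then fixed and stained in one step (final 0.05% Triton X-100, 1% formaldehyde, 1 ug/ml Hoechst) and imaged at 4×. Doses were one drug alone or a fixed anchor-drug dose plus five library-drug doses (not always all listed) in √10 steps, and values are duplicate-plate medians.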

[2] = compound: CCOc1cc2ncc(C#N)c(Nc3ccc(OCc4ccccn4)c(Cl)c3)c2cc1NC(=O)/C=C/CN(C)C [Neratinib] + CC(C)C[C@H](NC(=O)[C@H](Cc1ccccc1)NC(=O)c1cnccn1)B(O)O [Bortezomib] (partner 0.002 µM)
Method in brief: as §1

[3] = compound: CCOc1cc2ncc(C#N)c(Nc3ccc(OCc4ccccn4)c(Cl)c3)c2cc1NC(=O)/C=C/CN(C)C [Neratinib] + Cc1nc(NC(=O)N2CCC[C@H]2C(N)=O)sc1-c1ccnc(C(C)(C)C(F)(F)F)c1 [Alpelisib] (partner 2 µM)
Method in brief: as §1

[4] = compound: CCOc1cc2ncc(C#N)c(Nc3ccc(OCc4ccccn4)c(Cl)c3)c2cc1NC(=O)/C=C/CN(C)C [Neratinib] + Cc1nc(Nc2ncc(C(=O)Nc3c(C)cccc3Cl)s2)cc(N2CCN(CCO)CC2)n1 [Dasatinib] (partner 0.075 µM)
Method in brief: as §1

Row | Cell Line | relative viability ([1]; first compound 0.01 µM) | relative viability ([1]; first compound 0.03162 µM) | relative viability ([1]; first compound 0.1 µM) | relative viability ([1]; first compound 0.3162 µM) | relative viability ([1]; first compound 1 µM) | relative viability ([2]; first compound 0.01 µM) | relative viability ([2]; first compound 0.03162 µM) | relative viability ([2]; first compound 0.1 µM) | relative viability ([2]; first compound 0.3162 µM) | relative viability ([2]; first compound 1 µM) | relative viability ([3]; first compound 0.01 µM) | relative viability ([3]; first compound 0.03162 µM) | relative viability ([3]; first compound 0.1 µM) | relative viability ([3]; first compound 0.3162 µM) | relative viability ([3]; first compound 1 µM) | relative viability ([4]; first compound 0.01 µM) | relative viability ([4]; first compound 0.03162 µM) | relative viability ([4]; first compound 0.1 µM) | relative viability ([4]; first compound 0.3162 µM) | relative viability ([4]; first compound 1 µM)
1 | SK-LU-1 | 0.389 | 0.447 | 0.376 | 0.373 | 0.288 | 1.3 | 1.5 | 1.34 | 1.14 | 0.504 | 1.18 | 1.16 | 0.915 | 0.587 | 0.447 | 0.174 | 0.175 | 0.168 | 0.195 | 0.173
2 | LK-2 | 0.868 | 0.752 | – | 0.476 | 0.522 | – | – | – | – | – | 1.15 | 1.17 | – | 0.816 | 0.327 | 0.28 | 0.275 | 0.354 | 0.258 | 0.218
3 | NCI-H1944 | 0.365 | 0.32 | 0.264 | 0.241 | 0.247 | – | – | – | – | – | 0.948 | 0.782 | 0.615 | 0.561 | 0.393 | 0.201 | 0.211 | 0.193 | 0.205 | 0.181
4 | NCI-H1650 | 0.349 | 0.313 | 0.3 | 0.262 | 0.276 | 0.207 | 0.201 | 0.206 | 0.228 | 0.197 | – | – | – | – | – | 0.309 | 0.31 | 0.307 | 0.304 | 0.376
5 | NCI-H1648 | 0.29 | 0.265 | 0.231 | 0.26 | 0.337 | – | – | – | – | – | – | – | – | – | – | – | – | – | – | –
6 | SK-MES-1 | 0.3 | 0.327 | 0.329 | 0.281 | 0.247 | – | – | – | – | – | 0.914 | 0.988 | 0.661 | 0.384 | 0.207 | 0.375 | 0.25 | 0.163 | 0.14 | 0.14
7 | NCI-H2170 | 0.361 | 0.352 | 0.199 | 0.144 | 0.151 | – | – | – | – | – | 0.619 | 0.383 | 0.314 | 0.21 | 0.265 | 0.527 | 0.563 | 0.283 | 0.176 | 0.196
8 | NCI-H358 | 0.143 | 0.112 | 0.125 | 0.12 | 0.129 | – | – | – | – | – | 0.781 | 0.841 | 0.372 | 0.236 | 0.22 | 0.131 | 0.131 | 0.104 | 0.146 | 0.126
9 | NCI-H1563 | – | – | – | – | – | 0.812 | – | 0.685 | 0.752 | 0.647 | 0.815 | 0.984 | 0.877 | 0.843 | 0.875 | 0.513 | 0.485 | 0.499 | 0.41 | 0.332
10 | EBC-1 | – | – | – | – | – | 0.599 | 0.569 | 0.541 | 0.533 | 0.349 | 0.912 | 0.958 | 0.795 | 0.754 | 0.517 | – | – | – | – | –
11 | Calu-6 | – | – | – | – | – | 1.1 | – | 0.993 | 1 | 0.692 | 0.992 | 1.05 | 1.01 | 0.835 | 0.451 | – | – | – | – | –
12 | HCC-44 | 1.02 | 0.969 | – | 0.926 | 0.966 | 0.997 | 0.954 | 0.78 | 0.931 | 0.952 | 0.97 | 0.95 | 0.702 | 0.838 | 0.754 | – | – | – | – | –
